The target of experiment [1] is Replicase polyprotein 1ab (Severe acute respiratory syndrome-related coronavirus, UniProt P0C6X7).
Experiment [2] addresses Neuraminidase (Influenza A virus, UniProt B4URF0). As to the kind of experiment: Inhibition of Influenza A virus H5N1 neuraminidase preincubated for 10 mins followed by addition of 2'-(4-methylumbelliferyl)-alpha-D-N-acetylneuraminic acid as fluorogenic substrate measured after 15 mins by fluorescence analysis.

Sequence of Neuraminidase (B4URF0 whole entry): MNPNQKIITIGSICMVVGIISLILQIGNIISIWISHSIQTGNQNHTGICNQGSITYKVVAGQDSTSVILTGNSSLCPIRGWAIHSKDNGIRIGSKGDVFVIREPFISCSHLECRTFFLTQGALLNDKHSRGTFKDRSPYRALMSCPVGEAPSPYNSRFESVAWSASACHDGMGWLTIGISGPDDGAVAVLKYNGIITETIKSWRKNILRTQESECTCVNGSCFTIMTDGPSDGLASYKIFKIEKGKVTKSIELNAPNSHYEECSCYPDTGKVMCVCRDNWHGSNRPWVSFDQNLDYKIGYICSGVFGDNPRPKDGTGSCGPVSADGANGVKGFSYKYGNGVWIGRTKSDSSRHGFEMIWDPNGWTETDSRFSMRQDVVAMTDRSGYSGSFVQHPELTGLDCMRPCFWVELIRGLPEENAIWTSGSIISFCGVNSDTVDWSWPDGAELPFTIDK

Take `O=C(O)c1ccc(Cl)cc1-c1ccc(/C=C2\C(=O)N(c3ccc(F)cc3)N=C2c2ccccc2)o1`: the IC50 (commonly the concentration that gives 50% inhibition) in experiment [1] worked out at 20.2 µM; in experiment [2], 2.9 µM. `O=C1/C(=C\c2ccc(-c3ccccc3)o2)C(c2ccccc2)=NN1c1ccccc1`: the half-maximal inhibitory concentration (IC50) in experiment [1] is above 50 µM. In experiment [1], `CC(C)(C)c1ccc(N2N=C(c3ccccc3)/C(=C/c3ccc(-c4cc(Cl)ccc4C(=O)O)o3)C2=O)cc1` gave an IC50 of 5.8 µM.

In turn, `N#Cc1ccc(N2N=C(c3ccccc3)/C(=C/c3ccc(-c4ccccc4C(=O)O)o3)C2=O)cc1` displayed an IC50 in experiment [1] of 18.7 µM. For the molecule `CC(C)(C)c1ccc(N2N=C(c3ccccc3)/C(=C/c3ccc(-c4ccccc4C(=O)O)o3)C2=O)cc1`, it took 8.6 µM to reach half-maximal inhibition in experiment [1] (IC50). Still for that read-out and setting: the result for `COc1ccc(N2N=C(c3ccccc3)/C(=C/c3ccc(-c4ccccc4C(=O)O)o3)C2=O)cc1` reads 30.7 µM. Still for that read-out and setting: the result for `O=C(O)c1ccccc1-c1ccc(/C=C2\C(=O)N(c3ccc(F)cc3)N=C2c2ccccc2)o1` reads 37.5 µM; that for `O=C(O)c1cccc(N2N=C(c3ccccc3)/C(=C/c3ccc(-c4cc(Cl)ccc4C(=O)O)o3)C2=O)c1`, 44.7 µM. Still for that read-out and setting: the value for `O=C(O)c1cccc(N2N=C(c3ccccc3)/C(=C/c3ccc(-c4ccccc4)o3)C2=O)c1` was 6.4 µM; that for `O=C(O)c1cccc(N2N=C(C(F)(F)F)/C(=C/c3ccc(-c4cc(Cl)ccc4C(=O)O)o3)C2=O)c1` was above 50 µM. For the molecule `CC1=NN(c2cccc(C(=O)O)c2)C(=O)/C1=C\c1ccc(-c2cc(Cl)ccc2C(=O)O)o1`, in experiment [1], the IC50 is above 50 µM. Same read-out and setting: the result for `CC(C)c1ccc(N2N=C(c3ccccc3)/C(=C/c3ccc(-c4ccccc4C(=O)O)o3)C2=O)cc1` reads 11.7 µM. Take `O=C(O)c1ccccc1-c1ccc(/C=C2\C(=O)N(c3ccccc3)N=C2c2ccccc2)o1`: the IC50 in experiment [1] amounted to 41.2 µM; in experiment [2] it was 13.7 µM.

In the case of `CC1=NN(c2ccccc2)C(=O)/C1=C\c1ccc(-c2cc(Cl)ccc2C(=O)O)o1`, in experiment [1], the IC50 is above 50 µM. As for `O=C(O)c1ccc(Cl)cc1-c1ccc(/C=C2\C(=O)N(c3ccccc3)N=C2c2ccccc2)o1`, the IC50 amounted to 16.4 µM in experiment [1] and 2.8 µM in experiment [2]. With `CC1=NN(c2cccc(C(=O)O)c2)C(=O)/C1=C\c1ccc(-c2ccccc2)o1`, in experiment [1], the IC50 is above 50 µM. `O=C(O)c1cccc(N2N=C(c3ccccc3)/C(=C/c3ccco3)C2=O)c1` had an IC50 in experiment [1] above 50 µM.
